Data on 5 compounds can be found in US20060241026A1, “Novel cyclic peptides and use thereof as anti-microbial agents” (priority 2002, published 2006).

In experiment [1] the test system is Bacillus megaterium. Type of experiment: cell-based. Here is the method: (§1) The activity of the synthetic peptides was tested with respect to the Gram+ bacteria Mycrocossus luteus, Staphylococcus aureus, Staphylococcus epidermidis and Bacillus megaterium. The activities were determined according to the protocol described by HANCOCK et al. (http://www.interchg.ubc.ca/bobh/methods.htm)
(§2) The MIC was determined for each peptide by inhibition of growth in liquid medium. Doubling dilution of peptide was realized in the wells of a Microtest plate in a volume of 10 μl. The bacteria were grown in MUELLER HINTON BROTH (MHB, Difco) liquid medium. During the exponential growth phase, a solution with an optical density of 0.001 at 600 nm was produced, and 100 μl of this suspension were added to each well. The incubation lasted 24 h at 30° C., and the optical densities of each well were then measured at 600 nm. The value of the MIC corresponds to the first well for which the optical density had not changed.
(§3) The dishes were incubated for 24 h at 30° C. The value of the MBC corresponds to the lowest concentration of the peptide for which no colony developed.

Experiment [2] deals with Micrococcus luteus. It counts as cell-based. Here is the method:
as §1, §2, §3

The test system of experiment [3] is Staphylococcus aureus. It counts as cell-based. As for the experimental part: as §1, §2, §3
In experiment [4] the test system is Staphylococcus epidermidis. Type of experiment: cell-based. Here is the method: as §1, §2, §3
Experiment [5] concerns Fusarium oxysporum. Type of experiment: cell-based. Here is the method:
(§4) The anti-fungal activity was determined by calculating the MIC in a growth inhibition assay for the shrimp parasite fungus Fusarium oxysporum, in liquid phase, according to the protocol described by FELHBAM et al. (J. Biol. Chem., 1994, 269:33159-63). Doubling dilutions of each peptide were realized in the wells of a Microtest plate in a volume of 10 μl. 90 μl of spores resuspended in potato dextrose broth medium (DIFCO) at a final concentration of 10^4 spores/ml were added to each well. The growth inhibition was measured after incubation for 24 h at 25° C. in the dark, by observation under an optical microscope and measurement of the increase in OD at 600 nm. The value of the MIC corresponds to the first well for which the optical density had not increased.

Experiment [6] has as its system Gram+ and Gram− bacteria and a filamentous fungus. As to the kind of experiment: Antibiotic tests on Gram+ and Gram- bacteria and on a filamentous fungus, summary in words. Type of experiment: cell-based. The note with it: compared with the native molecule or the minimal loop. As for the experimental part:
as §1, §2, §3, §4
Using the 3-D structure of the native molecule as a basis, said molecule was fractionated into 17 elements (table I). All these fragments were synthesized and their activities were assayed using antibiotic tests on Gram+ and Gram− bacteria and on a filamentous fungus. The minimum inhibitory concentration (MIC) and minimum […] concentration (MBC) of each peptide were thus determined and were compared with those of the native molecule.

The test system is the same in experiment [7]. Described as above. It counts as cell-based.
For experiment [8], the system named is Gram+ bacteria. The note with it: cited from earlier work.

Values after ≈ are worked out from the molar mass of the structure shown. “Also recorded” adds a separate entry of the source. Where two headings read alike, the source gives them in different places. Positions of bridges follow the written chain, without caps; N, C: chain ends. Residues, ends and D or L forms follow the SMILES beside them. Bounds are passed on as bounds.

On to `CC(C)C[C@@H]1NC(=O)[C@H](CCCNC(=N)N)NC(=O)[C@H](Cc2c[nH]cn2)NC(=O)[C@H](Cc2c[nH]c3ccccc23)NC(=O)CNC(=O)CNC(=O)[C@@H](N)CSSC[C@@H](C(=O)O)NC(=O)[C@H](CCCNC(=N)N)NC1=O` [SEQ ID NO:1, C^(S)GGWHRLRC^(S)] (H-CGGWHRLRC-OH; disulfide 1-9; N-terminus and C-terminus assumed), for which, in experiment [1] (Table II), the “Bacillus megaterium MBC” value turned out to be 50 µM and the “Bacillus megaterium MIC” value was found to be 26 µM. For the same compound, the “MIC on M leuteus” value in experiment [2] (Table 1, growth inhibition in liquid medium, 24 h at 30° C.) came to 33 µM (≈ 35.8 µg/mL). Also, in experiment [2] (Table II), the “Micrococcus luteus MBC” value stood at 50 µM and the “Micrococcus luteus MIC” value stood at 24 µM. Also, in experiment [3] (Table II), the “Staphylococcus aureus MBC” value was determined as 75 µM and the “Staphylococcus aureus MIC” value was found to be 25 µM. Further, in experiment [4] (Table II), the “Staphylococcus epidermidis MBC” value stood at 50 µM and the “Staphylococcus epidermidis MIC” value is 17 µM. For the same compound, in experiment [5] (Table II, 24 h at 25° C.), the “Fusarium oxysporum MIC” value was determined as 28 µM. In addition, the “anti-microbial activity (in words)” value in experiment [6] is listed as “has anti-bacterial activity”.
As for `N=C(N)NCCC[C@@H]1NC(=O)[C@H](CCCCN)NC(=O)[C@H](CCCNC(=N)N)NC(=O)[C@H](CCCCN)NC(=O)[C@H](Cc2c[nH]c3ccccc23)NC(=O)CNC(=O)CNC(=O)[C@@H](N)CSSC[C@@H](C(=O)O)NC1=O` [SEQ ID NO:2, C^(S)GGWKRKRC^(S)] (H-CGGWKRKRC-OH; disulfide 1-9; N-terminus and C-terminus assumed), in experiment [1] (Bacillus), the “Bacillus megaterium MBC” value is over 75 µM and the “Bacillus megaterium MIC” value was 24 µM. Moreover, in experiment [2], the “Micrococcus luteus MBC” value was over 75 µM and the “Micrococcus luteus MIC” value was found to be 14 µM. In experiment [2] (24 h), the “MIC on M leuteus” value amounted to 13 µM (≈ 14.2 µg/mL). In experiment [3], the “Staphylococcus aureus MBC” value was 33 µM and the “Staphylococcus aureus MIC” value was found to be 15 µM. Besides, in experiment [4], the “Staphylococcus epidermidis MBC” value was over 75 µM and the “Staphylococcus epidermidis MIC” value was found to be 20 µM. The “Fusarium oxysporum MIC” value in experiment [5] (24 h) came out at 43 µM. For the same compound, the “anti-microbial activity (in words)” value in experiment [6] is on record as “increases the activity; also recorded: antibacterial potency greater than that of the cyclic peptide of sequence SEQ ID NO:1”.
In the case of `CC(C)C[C@@H]1NC(=O)[C@H](CCCNC(=N)N)NC(=O)[C@H](Cc2c[nH]cn2)NC(=O)[C@H](Cc2c[nH]c3ccccc23)NC(=O)CNC(=O)CNC(=O)[C@@H](NC(=O)[C@H](Cc2ccc(O)cc2)NC(=O)CNC(=O)CNC(=O)[C@@H](N)CO)CSSC[C@@H](C(=O)N[C@H](C(=O)N[C@@H](CO)C(=O)N[C@@H](Cc2ccc(O)cc2)C(=O)N[C@@H](CCCNC(=N)N)C(=O)N[C@@H](CO)C(=O)NCC(=O)O)[C@@H](C)O)NC(=O)[C@H](CCCNC(=N)N)NC1=O` [SEQ ID NO:6, SGGYC^(S)GGWHRLRC^(S)TSYRSG] (H-SGGYCGGWHRLRCTSYRSG-OH; disulfide 5-13; N-terminus and C-terminus assumed), in experiment [1] (Bacillus), the “Bacillus megaterium MBC” value is over 75 µM and the “Bacillus megaterium MIC” value is 25 µM. Further, in experiment [2], the “Micrococcus luteus MBC” value was over 75 µM and the “Micrococcus luteus MIC” value came out at 29 µM. Also, in experiment [2] (24 h), the “MIC on M leuteus” value was 32 µM (≈ 67.2 µg/mL). Also, in experiment [3], the “Staphylococcus aureus MBC” value was 75 µM and the “Staphylococcus aureus MIC” value stood at 19 µM. Besides, in experiment [4], the “Staphylococcus epidermidis MBC” value was over 75 µM and the “Staphylococcus epidermidis MIC” value stood at 24 µM. For the same compound, in experiment [5] (24 h), the “Fusarium oxysporum MIC” value is 14 µM.
Turning to `CC(C)C[C@@H]1NC(=O)[C@H](CCCNC(=N)N)NC(=O)[C@H](Cc2c[nH]cn2)NC(=O)[C@H](Cc2c[nH]c3ccccc23)NC(=O)CNC(=O)CNC(=O)[C@@H]2CSSC[C@H](NC(=O)[C@H](CCCNC(=N)N)NC1=O)C(=O)N[C@@H]([C@@H](C)O)C(=O)N[C@@H](CO)C(=O)N[C@@H](Cc1ccc(O)cc1)C(=O)N[C@@H](CCCNC(=N)N)C(=O)N[C@H](C(=O)NCC(=O)O)CSSC[C@H](N)C(=O)NCC(=O)NCC(=O)N[C@@H](Cc1ccc(O)cc1)C(=O)N2` [SEQ ID NO:7, C^(S2)GGYC^(S1)GGWHRLRC^(S1)TSYRC^(S2)G] (H-CGGYCGGWHRLRCTSYRCG-OH; disulfide 1-18, 5-13; N-terminus and C-terminus assumed), the “anti-microbial activity (in words)” value in experiment [6] is “more active than the minimal structure”. In addition, in experiment [7], the “ability to lyse cells” value is reported as “brings about the ability to lyse cells”.
As to “GFGCPNNYQCHRHCKSIPGRCGGYCGGWHRLRCTCYRCG (listed as Mytilus galloprovincialis) [SEQ ID NO:3, Mytilus galloprovincialis defensin, small cationic protein of 4 kDa comprising 39 amino acids; native molecule, reference compound]”, in experiment [1] (Table II), the “Bacillus megaterium MBC” value amounted to 1.5 µM and the “Bacillus megaterium MIC” value amounted to 0.8 µM. For the same compound, the “MBC on M leuteus” value in experiment [2] (Table 1, plating on MHA, 24 h at 30° C.) stood at 2 µM. In experiment [2] (Table II), the “Micrococcus luteus MBC” value is 1.5 µM and the “Micrococcus luteus MIC” value turned out to be 0.6 µM. In addition, in experiment [3] (Table II), the “Staphylococcus aureus MBC” value is 1.2 µM and the “Staphylococcus aureus MIC” value stood at 0.6 µM. For the same compound, in experiment [4] (Table II), the “Staphylococcus epidermidis MBC” value came to 6.2 µM and the “Staphylococcus epidermidis MIC” value came out at 3.1 µM. For the same compound, in experiment [5] (Table II, 24 h at 25° C.), the “Fusarium oxysporum MIC” value was 5 µM. The “anti-bacterial and anti-fungal activity of MGD1 (in words)” value in experiment [8] was “has anti-bacterial activity against Gram+ bacteria and anti-fungal activity”.
